The values below come from patent publication US8440695B2 (St Jude Children's Research Hospital, priority 2005, dated 2013).

“Also recorded” adds a separate entry of the source.

The subject of one data set is JNK. The data set is described as follows: Phospho-JNK ELISA in cultured aortic smooth muscle cells after antisense transfection. The data set is classed as cell-based, mouse. Conditions: aortic smooth muscle cells from ATM^+/+apoE^−/− mice, 1.4 μmol/L, 72 hours. On the procedure:
When cultured aortic smooth muscle cells were treated with a morpholino antisense oligonucleotide to ATM, JNK activity was increased, providing direct evidence that interfering with ATM expression induces JNK activity, a mediator of insulin resistance. Analysis of phospho-JNK in vascular smooth muscle cells cultured from ATM^+/+apoE^−/− mice. Primary aortic smooth muscle cells were transfected with an anti-ATM oligonucleotide, or a control oligonucleotide or the vehicle ethoxylated polyethylenimine solution only. Cells were assayed by ELISA for phospho-JNK and total JNK as measured in U/ml/well of a 96-well plate. […] Increased expression of phospho-JNK was detected in tissues involved in systemic insulin action in all three ATM genotypes in apoE^−/− mice, as determined by analysis of Western blots for fat, skeletal muscle and liver. Comparisons were made between ATM-deficient and ATM wild-type animals.
Most of the mass of the aorta is composed of smooth muscle cells. Smooth muscle cells were cultured from the aortas of apoE^−/− mice by the explant technique as described by Weng et al., Proc. Natl. Acad. Sci. USA, 2003, 100:6730-6735. […] Successful transfection was confirmed by fluorescence microscopy and phospho-JNK and total JNK were assayed 72 hours later using a cell-based ELISA kit. […]
On the technique in general: An ELISA detects its analyte on a solid surface through an enzyme-linked reagent.

A short description of data set [1]: Body weight, metabolic rate (indirect calorimetry) and fasting serum lipids in mice. Conditions: ATM^+/+ apoE^−/− mice, 7 mg/kg/week, 4 and 8 weeks Western diet. The data set is classed as in vivo, mouse.
Data set [2] concerns the target T1, ATM (Homo sapiens, UniProt Q13315). The data set is described as follows: Activated ATM (Ser1981P-ATM Western blot) in monocytes of treated subjects. Further details: lysates were immunoprecipitated using a total ATM antibody (D1611); endogenous in cells; host or cells: adherent peripheral blood monocytes from human subjects with metabolic syndrome. The data set is classed as in vivo. Here is the method:
Anticoagulated blood was added to commercially available tubes containing Histopaque, and mononuclear cells were collected after centrifugation. These cells were subjected to a brief second spin using a discontinuous sucrose gradient to remove platelets (which can interfere with the adherence of monocytes to culture dishes), then the mononuclear cells were placed in tissue culture dishes. Two hours later, lymphocytes were washed away, and adherent monocytes were collected and frozen in appropriate media so that cells from different limbs of the protocol can subsequently be studied in the same assays. […] For activated ATM determinations, lysates were immunoprecipitated using a total ATM antibody (D1611). The immunoprecipitated samples were blotted for activated ATM using a monoclonal antibody recognizing Ser1981P-ATM. The gels included a positive control of 293 cells treated with camptothecin. Total lysates were used to blot activated p53 using a polyclonal antibody to Ser15P-p53 (cell signaling). To confirm the p53 data, total lysates were tested using an ELISA-based p53 DNA binding assay (TransAM p53 activity assay from Active Motif).
Target sequence in this assay (Q13315 whole entry): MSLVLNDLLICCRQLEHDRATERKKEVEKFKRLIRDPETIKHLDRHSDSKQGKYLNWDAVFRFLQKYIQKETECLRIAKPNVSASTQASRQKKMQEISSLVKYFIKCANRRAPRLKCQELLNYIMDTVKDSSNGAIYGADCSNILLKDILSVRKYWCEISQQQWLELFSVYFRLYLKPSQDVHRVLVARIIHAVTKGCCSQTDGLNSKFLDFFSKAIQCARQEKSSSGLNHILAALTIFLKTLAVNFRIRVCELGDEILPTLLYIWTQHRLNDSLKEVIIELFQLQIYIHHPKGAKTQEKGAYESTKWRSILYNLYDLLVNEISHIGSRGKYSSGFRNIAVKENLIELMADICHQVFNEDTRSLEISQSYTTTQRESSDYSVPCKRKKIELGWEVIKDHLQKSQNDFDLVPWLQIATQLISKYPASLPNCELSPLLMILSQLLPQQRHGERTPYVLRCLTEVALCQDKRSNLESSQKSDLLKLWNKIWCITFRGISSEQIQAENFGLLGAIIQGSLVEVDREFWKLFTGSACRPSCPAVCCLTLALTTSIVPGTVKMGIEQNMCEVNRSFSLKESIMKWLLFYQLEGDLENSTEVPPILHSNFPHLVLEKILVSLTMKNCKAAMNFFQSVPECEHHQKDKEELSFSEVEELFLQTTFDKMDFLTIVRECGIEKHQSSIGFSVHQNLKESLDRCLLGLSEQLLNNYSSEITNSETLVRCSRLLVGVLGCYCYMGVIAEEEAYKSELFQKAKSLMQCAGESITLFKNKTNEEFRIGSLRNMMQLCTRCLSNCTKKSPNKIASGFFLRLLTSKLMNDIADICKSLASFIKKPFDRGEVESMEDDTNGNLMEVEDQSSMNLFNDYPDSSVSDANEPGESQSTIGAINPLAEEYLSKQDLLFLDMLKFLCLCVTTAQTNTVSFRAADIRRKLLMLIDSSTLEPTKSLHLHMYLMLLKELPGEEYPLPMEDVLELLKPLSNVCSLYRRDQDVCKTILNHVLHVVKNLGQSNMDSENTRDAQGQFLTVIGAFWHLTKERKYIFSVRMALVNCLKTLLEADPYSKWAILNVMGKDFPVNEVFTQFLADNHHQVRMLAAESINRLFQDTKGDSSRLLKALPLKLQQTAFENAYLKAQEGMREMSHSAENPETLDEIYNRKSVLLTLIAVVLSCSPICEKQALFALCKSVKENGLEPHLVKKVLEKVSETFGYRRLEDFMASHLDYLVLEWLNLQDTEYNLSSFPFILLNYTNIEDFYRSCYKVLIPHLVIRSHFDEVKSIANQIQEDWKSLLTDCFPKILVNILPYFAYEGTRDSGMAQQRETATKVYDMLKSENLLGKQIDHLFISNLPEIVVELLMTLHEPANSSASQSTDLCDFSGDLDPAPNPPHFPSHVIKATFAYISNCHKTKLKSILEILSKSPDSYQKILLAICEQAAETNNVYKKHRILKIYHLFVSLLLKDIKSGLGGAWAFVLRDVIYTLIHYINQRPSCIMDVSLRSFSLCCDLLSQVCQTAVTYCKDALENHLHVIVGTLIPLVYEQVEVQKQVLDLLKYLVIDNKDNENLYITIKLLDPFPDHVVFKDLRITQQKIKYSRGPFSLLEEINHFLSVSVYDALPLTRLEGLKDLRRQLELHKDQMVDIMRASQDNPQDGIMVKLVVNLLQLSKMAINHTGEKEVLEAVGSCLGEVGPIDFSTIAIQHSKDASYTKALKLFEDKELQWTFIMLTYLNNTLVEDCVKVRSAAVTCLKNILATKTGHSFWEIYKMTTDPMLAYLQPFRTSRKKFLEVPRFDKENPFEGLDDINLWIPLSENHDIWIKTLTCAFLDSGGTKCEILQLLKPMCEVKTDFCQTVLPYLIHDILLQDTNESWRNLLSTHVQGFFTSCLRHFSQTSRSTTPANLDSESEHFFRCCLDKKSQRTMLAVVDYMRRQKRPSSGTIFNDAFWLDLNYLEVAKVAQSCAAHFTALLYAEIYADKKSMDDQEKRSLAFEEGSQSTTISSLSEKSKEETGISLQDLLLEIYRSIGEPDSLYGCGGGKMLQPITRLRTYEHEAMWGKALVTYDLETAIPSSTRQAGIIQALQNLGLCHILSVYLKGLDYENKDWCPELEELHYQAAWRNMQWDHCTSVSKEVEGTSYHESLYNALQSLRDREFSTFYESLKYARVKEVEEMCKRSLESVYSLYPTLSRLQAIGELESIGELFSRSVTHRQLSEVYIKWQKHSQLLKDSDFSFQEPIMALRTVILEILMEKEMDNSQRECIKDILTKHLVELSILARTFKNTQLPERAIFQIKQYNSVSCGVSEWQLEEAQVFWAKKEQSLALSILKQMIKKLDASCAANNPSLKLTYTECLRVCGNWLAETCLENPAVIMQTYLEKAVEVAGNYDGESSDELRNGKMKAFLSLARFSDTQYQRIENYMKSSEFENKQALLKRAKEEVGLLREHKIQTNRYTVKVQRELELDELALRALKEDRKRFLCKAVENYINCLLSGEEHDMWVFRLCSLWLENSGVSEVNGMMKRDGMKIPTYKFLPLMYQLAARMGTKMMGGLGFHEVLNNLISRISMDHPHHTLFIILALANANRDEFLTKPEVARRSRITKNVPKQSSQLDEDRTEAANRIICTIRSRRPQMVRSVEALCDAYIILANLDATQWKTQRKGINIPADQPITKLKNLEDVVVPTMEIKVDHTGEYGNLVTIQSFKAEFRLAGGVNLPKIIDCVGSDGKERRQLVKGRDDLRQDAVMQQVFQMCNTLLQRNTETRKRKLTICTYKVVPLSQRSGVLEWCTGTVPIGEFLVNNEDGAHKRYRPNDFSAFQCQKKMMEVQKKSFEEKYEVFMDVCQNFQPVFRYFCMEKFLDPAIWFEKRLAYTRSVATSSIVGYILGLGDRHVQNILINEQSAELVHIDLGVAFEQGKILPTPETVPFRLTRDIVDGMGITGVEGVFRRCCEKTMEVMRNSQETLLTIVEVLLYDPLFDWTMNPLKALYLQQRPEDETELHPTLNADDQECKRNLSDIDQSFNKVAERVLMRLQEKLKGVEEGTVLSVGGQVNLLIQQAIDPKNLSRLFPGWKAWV
(Immunoblotting shows a protein as a band on a membrane.)

In another data set the test system is p53. Conditions: low dose chloroquine, 3.5 mg/kg per injection i.p. The source says:
(§1) However, low level activation of ATM as detected with an antibody that recognizes serine phosphorylation at residue 1981, may also be used in the assay.

The target in data set [3] is T1, ATM. Nature of the data set: ATM activation in cultured cells. The data set is classed as cell-based. The arrangement: endogenous in cells. Conditions: low concentrations.
Text: as §1
Target sequence in this assay (Q13315 whole entry, species assumed): as the sequence (Q13315 whole entry) above

A further data set concerns lipoprotein lipase (LPL). The data set is described as follows: LPL enzyme activity in peritoneal macrophages from treated mice. The data set is classed as in vivo, mouse. Conditions: ATM^+/+ mice treated systemically, vs saline.
For data set [4], the system named is ATM^+/+apoE^−/− and ATM^−/−apoE^−/− mice. The data set is described as follows: Intraperitoneal glucose tolerance test in Western diet-fed mice. The data set is classed as in vivo, mouse.
Method: For glucose tolerance and insulin tolerance tests, mice were fasted and injected with 10% D-glucose (1 g/kg) or human regular insulin (0.75 units/kg body weight, Eli Lilly and Co., Indianapolis, Ind.) in procedures separated by at least one week. Tail vein blood (5-10 µl) was assayed for glucose at 0, 30, 60, and 120 minutes. Blood glucose was assayed using a glucose meter (Hemocue, Mission Viejo, Calif. or Becton Dickinson, San Jose, Calif.). The area under the glucose and insulin curves (AUC) during the OGTT and ITT were calculated using the formula: 0.25 (fasting value)+0.5 (½ h value)+0.75 (1 h value)+0.5 (2 h value).
The glucose tolerance and insulin tolerance tests were performed on mice that were fasted for 12 hours and then injected with 10% D-glucose (1 g/kg) or human regular insulin (0.75 units/kg body weight, Eli Lilly and Co., Indianapolis, Ind.) in procedures separated by at least one week. Tail vein blood (5-10 μl) was assayed for glucose at 0, 30, 60, and 120 minutes. Blood glucose was assayed using a glucose meter (Hemocue, Mission Viejo, Calif.). The area under the glucose and insulin curves (AUC) during the OGTT and ITT were calculated using the formula: 0.25 (fasting value)+0.5 (½ h value)+0.75 (1 h value)+0.5 (2 h value), as described by Haffner et al., N. Engl.
(§5) The mice were then fed the Western-type diet as described.
The subject of the next data set is ATM^+/+ apoE^−/− mice. The data set is described as follows: Atherosclerosis by the en face technique in Western diet-fed mice. The format is in vivo, mouse. As to conditions: 7 mg/kg/week i.p., 8 weeks Western diet, vs saline.
The test system of data set [5] is ApoE-null model mice lacking a single allele of ATM. Nature of the data set: ApoE-null mice lacking a single allele of ATM on high fat diet, chloroquine treatment. The data set is classed as in vivo, mouse. Conditions: 7 mg/kg per week.
In data set [6] the test system is subjects with the metabolic syndrome. Nature of the data set: Hyperinsulinemic-euglycemic clamp in subjects with the metabolic syndrome. The format is in vivo, human. On the procedure: (§2) Glucose and insulin tolerance tests are generally performed using D-glucose (1 g/kg) and insulin (0.75 U/kg), which are administered in separate procedures followed by serial measurements of blood glucose. If necessary, an oral glucose tolerance test (OGTT) will be performed the day after completing the clamp. After an overnight fast, an intravenous catheter will be placed, baseline labs will be obtained, 75 g of glucose will be consumed, and blood glucose, insulin, C peptide, and glucagon will be determined every half hour for 2 hours.
Two subjects with the metabolic syndrome have completed the protocol. The mean glucose infusion rate to maintain euglycemia (90 mg/dl) at steady state during the first stage of the clamp (using an insulin infusion rate of 15 mU/m^2/min) for these two subjects was determined.
Clamps are performed with infusion of stable isotope-labeled glucose to allow the determination of both glucose disposal rates and hepatic glucose output during hyperinsulinemic-euglycemic clamps in subjects with the metabolic syndrome. The results are presented as the mean for two subjects.

Another data set has as its system retina. As to conditions: several groups; cited from earlier work.
In data set [7] the test system is subjects with the metabolic syndrome. Nature of the data set: Ambulatory blood pressure, glucose tolerance test and body weight in subjects with the metabolic syndrome. The format is in vivo, human. Conditions: two subjects. On the procedure: as §2
The test system is the same in data set [8]. Nature of the data set: Fasting lipids and lipoproteins in subjects with the metabolic syndrome. Conditions: for Total Cholesterol / HDL cholesterol / LDL cholesterol / Triglycerides: 3 weeks; for Total Cholesterol: average of two subjects, placebo 206; for HDL cholesterol: placebo 47; for LDL cholesterol: placebo 132; for Triglycerides: placebo 139. The data set is classed as in vivo, human.

Data set [9] deals with ATM^+/+ apoE^−/− and ATM^−/− apoE^−/− mice. Nature of the data set: Tail-cuff systolic and diastolic blood pressure in Western diet-fed mice. Conditions: 7 mg/kg/week, 8 weeks Western diet, vs saline. The data set is classed as in vivo, mouse.
Method: Systolic blood pressure (SBP) and diastolic blood pressure (DBP) were measured after 8 weeks of Western diet feeding in ATM^+/+, ATM^+/−, and ATM^−/− mice. […] A plethysmography device (such as those supplied by Kent Scientific, Litchfield, Conn.) was used for tail cuff blood pressure determinations in acclimated, warmed mice performed by a technician blinded to treatment status, according to the manufacturer's instructions. Results were reported as the mean of 5-8 measurements on each day of 3 consecutive days.
Systolic and diastolic blood pressures were measured over several days in conscious mice using a tail-cuff system (Kent Scientific, Litchfield, Conn.) as described (Bernal-Mizrachi et al., 2003; Nat. Med. 9:1069-1075). Animals were habituated to the blood pressure apparatus for several days before data were collected. Five to eight measurements were recorded for each mouse at each of three daily sessions. Results are presented as the mean of those measurements on consecutive days.
In data set [10] the test system is patients with type 2 diabetes. As to conditions: cited from earlier work.
The subject of the next data set is db/db mice. The data set is described as follows: Fed blood glucose in db/db mice. The data set is classed as in vivo, mouse. As to conditions: male db/db mice, vs baseline and saline. Here is the method:
(§3) Two month old male db/db (Lepr^db; LEPR-deficient mice having excess adiposity) mice and ob/ob (Lep^ob, genetically obese) mice were purchased from Harlan (Indianapolis, Ind.) and the Jackson Laboratory, respectively.
(§4) Blood glucose in male db/db mice were treated with either CHQ or saline. Baseline represents the average fed blood glucose levels of the 12 db/db mice.

Another data set has as its system ob/ob mice. Nature of the data set: Blood glucose and fasting insulin in ob/ob mice. The format is in vivo, mouse. Here is the method: as §3, §4
The mark [11] stands for this setting: 80 mg/day, first stage of clamp, mean of two subjects.
[12] abbreviates: 80 mg/day for three weeks, two subjects.
[13] abbreviates: 1000 mg/day for three days (Powrie et al.).

Method for ATM^+/+ apoE^−/− mice: Atherosclerosis was measured using the en face or aortic origin technique. For the former, pinned aortas were imaged with a digital camera and analyzed by using an image-processing program. The percentage of involvement of the intimal surface area is reported for the arch (encompassing the surface from the aortic valve to the left subclavian artery), the thoracic aorta (extending to the final intercostal artery), and the abdominal aorta (to the ileal bifurcation). For the aortic origin technique, mean lesion size for each animal was quantified by the degree of lipid staining of cross-sections of aortic tissue as described. Anesthetized mice were exsanguinated, the heart and aortic arch were perfused, then tissues were removed en bloc and frozen immediately in tissue freeze medium. For each sample, 64 sections were made on a cryostat beginning just caudal to the aortic sinus and extending into the proximal aorta at 10 μm intervals. Slides were fixed with 60% isopropanol and stained with Oil Red O. For each heart, lesions in eight sections at 80 μm intervals were quantified using image analysis software calibrated using a hemocytometer grid.
as §5
The quantification of aortic lesions involved cleaning the aortas and pinning them on a wax matrix with the intimal surface facing upward (en face). Images were captured with a digital camera, edited for artifacts, and data were reported as the percent involvement of the arch (encompassing the surface from the aortic valve to the left subclavian artery), thoracic aorta (extending to the last intercostal artery), and abdominal aorta (to the ileal bifurcation). At the time of isolation, hearts were embedded in optical coherence tomography (OCT) media and frozen to permit quantification of lesion formation by staining of serial cryostat-cut sections of the aortic sinus, if necessary.
Method for lipoprotein lipase (LPL): For LPL assays, cells were fed on day 6. On day 7, cells were washed and incubated in DMEM plus 0.5% BSA for 4 hr, followed by incubation with 10 U/ml heparin, collection of media, and subsequent determination of LPL activity as described (Coleman et al., 1995; J. Biol. Chem. 270:12518-12525).
Briefly, lipoprotein lipase (LPL) enzyme activity is determined by measuring the release of labeled fatty acids from a triolein emulsion in macrophages. Cells were fed on day 6. On day 7, cells were washed and incubated in DMEM plu 0.5% BSA for 4 hours, followed by incubation with 10 U/ml heparin, collection of media, and subsequent determination of LPL activity as described by Coleman et al., J. Biol. Chem., 1995, 270:12518-12525. Macrophages from the same sources were used in the assays.

On to “anti-ATM: lissamine-tagged Morpholino antisense oligonucleotide against mouse ATM, 5′-GTGCTAGACTCATGGTTTAAGATTT-3′ (SEQ ID NO:6) (all phosphorodiamidate morpholino (PMO); lissamine tag, position not given here)”, for which the “JNK activity (phospho-JNK normalized to total JNK)” value with JNK was “increased”.

As for `CCN(CC)CCCC(C)Nc1ccnc2cc(Cl)ccc12` (stereo not shown) [chloroquine, N4-(7-Chloro-4-quinolinyl)-N1,N1-diethyl-1,4-pentanediamine], the “serum lipids (fasting cholesterol, triglycerides, NEFA)” value in data set [1] is given as “no effect”. Moreover, the ATM activation result on ATM [2] (80 mg/day dose) was “greater activation”. Moreover, the ATM activation result on ATM [2] (250 mg/day dose) is listed as “blunted effect”. Further, the “activation of ATM in monocytes” value at ATM [2] (three weeks of 80 mg/day or 250 mg/day, none with placebo) is “activation; also recorded: activated”. Also, the “p53 activation in fat and muscle as well as liver, aorta and cultured macrophages” value in the data set with p53 was “p53 activation”. For the same compound, on ATM [3], the “ATM activation in cultured cells” value is listed as “activates”. The “LPL enzyme activity in peritoneal macrophages” value in the data set with lipoprotein lipase (LPL) is listed as “decreased”. The glucose tolerance entry in [4] (ATM^+/+ apoE^−/− mice, 7 mg/kg/week, 8 weeks Western diet, vs saline) is “improved”. Also, the glucose tolerance entry in data set [4] (ATM^−/−apoE^−/− mice, Western diet) is listed as “not”. In the data set on ATM^+/+ apoE^−/− mice, the “decrease of atherosclerosis (lesion area) at the abdominal aorta” value is given as 25%, the “decrease of atherosclerosis (lesion area) at the arch” value is recorded as 37% and the “decrease of atherosclerosis (lesion area) at the thoracic aorta” value came to 25%. Besides, in [5], the atherosclerosis result is given as “significantly reduced”, the central adiposity entry was “significantly reduced”, the glucose intolerance result is listed as “significantly reduced” and the hypertension result is “significantly reduced”. Further, the “increase in glucose infusion rate compared to placebo” value in data set [6] (80 mg dose, second stage of clamp (insulin 40 mU/m^2/min)) stood at 23%. Moreover, the “increase in glucose infusion rate to maintain the blood glucose” value in data set [6] (80 mg per day oral, 3 weeks, first stage of clamp (insulin 15 mU/m^2/min), mean of two subjects) amounted to 63%. In data set [6] (setting [11]), the “decrease of hepatic glucose production” value is on record as 58% and the “increase of glucose disposal in peripheral tissues” value was found to be 62%. The “glucose infusion rate effect” value in [6] (250 mg dose, clamp first and second stage) is “blunted effect”. The “cumulative doses with no effects (retinopathy)” value in the data set with retina is given as 300 grams. Besides, in data set [7], the “ambulatory blood pressures (systolic, diastolic, mean arterial)” value is on record as “did not appear to be affected”. In [8] (setting [12]), the “decrease in LDL cholesterol” value stood at 25%, the “decrease in total cholesterol” value came out at 17% and the decrease in triglycerides is given as 10%. Moreover, in [8] (chloroquine 80 mg/day), the “Total Cholesterol” value is 172 mg/dL, the HDL cholesterol is 47 mg/dL, the LDL cholesterol was determined as 100 mg/dL and the Triglycerides was 125 mg/dL. Moreover, in data set [8] (chloroquine 250 mg/day), the “Total Cholesterol” value amounted to 169 mg/dL, the HDL cholesterol was found to be 51 mg/dL, the LDL cholesterol was 99 mg/dL and the Triglycerides was 129 mg/dL. Moreover, in data set [9], the “lowering of systolic pressure” value came to 9 mm Hg. Moreover, in data set [10] (setting [13]), the endogenous glucose production entry is given as “without affecting” and the “insulin resistance in peripheral tissues” value was “modestly decreased”. Besides, in [10] (1000 mg/day for three days, patients with type 2 diabetes), the “increase in the glucose infusion rate required to maintain euglycemia” value was 13%. Further, the fed glucose levels entry with db/db mice is “lowered”. In the data set with ob/ob mice (7 mg/kg/week, saline 16,810±1,120, P<0.05), the fasting insulin levels is 13,360±1996 pg/ml. Also, in the data set on ob/ob mice (3 weeks after initiation, vs baseline and saline), the fasting glucose levels entry is listed as “lowered”. For the same compound, the fed glucose levels result in the data set with ob/ob mice (vs baseline and saline) is “lowered”.
